Assay results taken from patent US7273848B2, “Apolipoprotein A-I agonists and their use to treat dyslipidemic disorders” (priority 1997, dated 2007).
Non-standard residues stand in square brackets, D forms with d. Residues, ends and D or L forms follow the SMILES beside them. Aib = CC(C)(N)C(=O)O

Target: T1, LCAT (purified from human plasma) (Homo sapiens, UniProt P04180)
T1 construct: from tissue; host or cells: human plasma
T1 sequence (P04180 25-440): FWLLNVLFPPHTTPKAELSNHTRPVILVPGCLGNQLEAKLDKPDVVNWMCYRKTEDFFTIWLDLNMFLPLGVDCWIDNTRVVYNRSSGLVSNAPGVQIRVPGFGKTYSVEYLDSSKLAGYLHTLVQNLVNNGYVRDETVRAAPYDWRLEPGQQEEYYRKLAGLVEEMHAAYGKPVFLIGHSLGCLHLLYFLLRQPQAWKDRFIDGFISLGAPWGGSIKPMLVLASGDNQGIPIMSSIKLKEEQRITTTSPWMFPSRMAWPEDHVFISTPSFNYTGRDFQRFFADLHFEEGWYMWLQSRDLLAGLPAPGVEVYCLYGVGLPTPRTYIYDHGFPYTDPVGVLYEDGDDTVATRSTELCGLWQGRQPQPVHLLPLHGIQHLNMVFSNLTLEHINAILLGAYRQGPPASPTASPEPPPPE
Assay: LCAT activation assay
Format: biochemical
Conditions: LCAT activation as compared with native human ApoA-I (= 100%), equivalent masses
Method: The peptides synthesized as described in Section 6, supra, were analyzed in vitro for their ability to activate LCAT. In the LCAT assay, substrate vesicles (small unilamellar vesicles or “SUVs”) composed of egg phophatidylcholine (EPC) or 1-Palmitoyl-2-oleyl-phosphatidyl-choline (POPC) and radiolabelled cholesterol are preincubated with equivalent masses either of peptide or ApoA-I (isolated from human plasma). The reaction is initiated by addition of LCAT (purified from human plasma). Native ApoA-I, which was used as positive control, represents 100% activation activity. “Specific activity” (i.e., units of activity (LCAT activation)/unit of mass) of the peptides can be calculated as the concentration of peptide that achieves maximum LCAT activation. For example, a series of concentrations of the peptide (e.g., a limiting dilution) can be assayed to determine the “specific activity” for the peptide—the concentration which achieves maximal LCAT activation (i.e., percentage conversion of cholesterol to cholesterol ester) at a specific timepoint in the assay (e.g., 1 hr.). When plotting percentage conversion of cholesterol at, e.g., 1 hr., against the concentration of peptide used, the “specific activity” can be identified as the concentration of peptide that achieves a plateau on the plotted curve.
The vesicles used in the LCAT assay are SUVs composed of egg phosphatidylcholine (EPC) or 1-palmitoyl-2-oleyl-phosphatidylcholine (POPC) and cholesterol with a molar ratio of 20:1. To prepare a vesicle stock solution sufficient for 40 assays, 7.7 mg EPC (or 7.6 mg POPC; 10 μmol), 78 μg (0.2 μmol) 4-^14C-cholesterol, 116 μg cholesterol (0.3 μmol) are dissolved in 5 ml xylene and lyophilized. Thereafter 4 ml of assay buffer is added to the dry powder and sonicated under nitrogen atmosphere at 4° C. Sonication conditions: Branson 250 sonicator, 10 mm tip, 6×5 minutes; Assay buffer: 10 mM Tris, 0.14 M NaCl, 1 mM EDTA, pH 7.4). The sonicated mixture is centrifuged 6 times for 5 minutes each time at 14,000 rpm (16,000×g) to remove titanium particles. The resulting clear solution is used for the enzyme assay.
For the LCAT purification, dextran sulfate/Mg^2+ treatment of human plasma is used to obtain lipoprotein deficient serum (LPDS), which is sequentially chromatographed on Phenylsepharose, Affigelblue, ConcanavalinA sepharose and anti-ApoA-I affinity chromatography, as summarized for a representative purification in TABLE IX, below: […]

Row | SMILES | ACTIVITY (%) LCAT [%]
1 | CC(C)C[C@H](NC(=O)[C@H](C)NC(=O)[C@H](CCC(=O)O)NC(=O)[C@H](CC(C)C)NC(=O)C(C)(C)NC(=O)[C@H](CCC(=O)O)NC(=O)[C@H](CC(N)=O)NC(=O)[C@H](CC(C)C)NC(=O)[C@H](CCCCN)NC(=O)[C@H](Cc1c[nH]c2ccccc12)NC(=O)[C@H](CCCNC(=N)N)NC(=O)[C@H](Cc1ccccc1)NC(=O)[C@H](CCC(=O)O)NC(=O)[C@H](CC(=O)O)NC(=O)[C@H](CC(C)C)NC(=O)[C@@H](NC(=O)[C@@H]1CCCN1)C(C)C)C(=O)N[C@@H](CCCCN)C(=O)N[C@@H](CCC(N)=O)C(=O)N[C@@H](CCCCN)C(=O)N[C@@H](CC(C)C)C(=O)N[C@@H](CCCCN)C(=O)O [compound 61, PVLDEFRWKLNEXLEALKQKLK] (H-PVLDEFRWKLNE[Aib]LEALKQKLK-OH) | 16
2 | CC(C)C[C@H](NC(=O)[C@H](C)NC(=O)[C@H](CCC(=O)O)NC(=O)[C@H](CC(C)C)NC(=O)C(C)(C)NC(=O)[C@H](CCC(=O)O)NC(=O)[C@H](CC(N)=O)NC(=O)[C@H](CC(C)C)NC(=O)[C@H](CCCCN)NC(=O)[C@H](CCC(=O)O)NC(=O)[C@H](CCCNC(=N)N)NC(=O)[C@H](Cc1ccccc1)NC(=O)[C@H](CCC(=O)O)NC(=O)[C@H](CC(=O)O)NC(=O)[C@H](CC(C)C)NC(=O)[C@H](Cc1c[nH]c2ccccc12)NC(=O)[C@@H]1CCCN1)C(=O)N[C@@H](CCCCN)C(=O)N[C@@H](CCC(N)=O)C(=O)N[C@@H](CCCCN)C(=O)N[C@@H](CC(C)C)C(=O)N[C@@H](CCCCN)C(=O)O [compound 64, PWLDEFREKLNEXLEALKQKLK] (H-PWLDEFREKLNE[Aib]LEALKQKLK-OH) | 15
3 | CC(C)C[C@H](NC(=O)[C@H](C)NC(=O)[C@H](CCC(=O)O)NC(=O)[C@H](CC(C)C)NC(=O)C(C)(C)NC(=O)[C@H](CCC(=O)O)NC(=O)[C@H](CC(N)=O)NC(=O)[C@H](CC(C)C)NC(=O)[C@H](CCCCN)NC(=O)[C@H](CCC(=O)O)NC(=O)[C@H](CCCNC(=N)N)NC(=O)[C@H](Cc1ccccc1)NC(=O)[C@H](CCC(=O)O)NC(=O)[C@H](CC(=O)O)NC(=O)[C@H](CC(C)C)NC(=O)[C@@H](N)C(C)C)C(=O)N[C@@H](CCCCN)C(=O)N[C@@H](CCC(N)=O)C(=O)N[C@@H](CCCCN)C(=O)N[C@@H](CC(C)C)C(=O)N[C@@H](CCCCN)C(=O)O [compound 65, ~VLDEFREKLNEXLEALKQKLK] (H-VLDEFREKLNE[Aib]LEALKQKLK-OH) | 15
4 | CC(C)C[C@H](NC(=O)[C@H](C)NC(=O)[C@H](CCC(=O)O)NC(=O)C(C)(C)NC(=O)[C@H](CC(C)C)NC(=O)[C@H](CCC(=O)O)NC(=O)[C@H](CC(N)=O)NC(=O)[C@H](CC(C)C)NC(=O)[C@H](CCCCN)NC(=O)[C@H](CCC(=O)O)NC(=O)[C@H](CCCNC(=N)N)NC(=O)[C@H](Cc1ccccc1)NC(=O)[C@H](CCC(=O)O)NC(=O)[C@H](CC(=O)O)NC(=O)[C@H](CC(C)C)NC(=O)[C@@H](NC(=O)[C@@H]1CCCN1)C(C)C)C(=O)N[C@@H](CCCCN)C(=O)N[C@@H](CCC(N)=O)C(=O)N[C@@H](CCCCN)C(=O)N[C@@H](CC(C)C)C(=O)N[C@@H](CCCCN)C(=O)O [compound 71, PVLDEFREKLNELXEALKQKLK] (H-PVLDEFREKLNEL[Aib]EALKQKLK-OH) | 11
5 | CC(C)C[C@H](NC(=O)[C@H](C)NC(=O)[C@H](Cc1c[nH]c2ccccc12)NC(=O)[C@H](CC(C)C)NC(=O)C(C)(C)NC(=O)[C@H](CCC(=O)O)NC(=O)[C@H](CC(N)=O)NC(=O)[C@H](CC(C)C)NC(=O)[C@H](CC(C)C)NC(=O)[C@H](CCC(=O)O)NC(=O)[C@H](CCCNC(=N)N)NC(=O)[C@H](Cc1ccccc1)NC(=O)[C@H](CC(C)C)NC(=O)[C@H](CC(=O)O)NC(=O)[C@H](CC(C)C)NC(=O)[C@@H](NC(=O)[C@@H]1CCCN1)C(C)C)C(=O)N[C@@H](CCCCN)C(=O)N[C@@H](CCC(N)=O)C(=O)N[C@@H](CCCCN)C(=O)N[C@@H](CC(C)C)C(=O)N[C@@H](CCCCN)C(=O)O [compound 72, PVLDLFRELLNEXLWALKQKLK] (H-PVLDLFRELLNE[Aib]LWALKQKLK-OH) | 11
6 | CC(C)C[C@H](NC(=O)[C@H](C)NC(=O)[C@H](CCC(=O)O)NC(=O)[C@H](CC(C)C)NC(=O)C(C)(C)NC(=O)[C@H](CCC(=O)O)NC(=O)[C@H](CC(N)=O)NC(=O)[C@H](CC(C)C)NC(=O)[C@H](CCCCN)NC(=O)[C@H](CCC(=O)O)NC(=O)[C@H](Cc1c[nH]c2ccccc12)NC(=O)[C@H](Cc1ccccc1)NC(=O)[C@H](CCC(=O)O)NC(=O)[C@H](CC(=O)O)NC(=O)[C@H](CC(C)C)NC(=O)[C@@H](NC(=O)[C@@H]1CCCN1)C(C)C)C(=O)N[C@@H](CCCCN)C(=O)N[C@@H](CCC(N)=O)C(=O)N[C@@H](CCCCN)C(=O)N[C@@H](CC(C)C)C(=O)N[C@@H](CCCCN)C(=O)O [compound 73, PVLDEFWEKLNEXLEALKQKLK] (H-PVLDEFWEKLNE[Aib]LEALKQKLK-OH) | 10

Continued, values first:

Row | ACTIVITY (%) LCAT [%] | SMILES
7 | 18 | CC(C)C[C@H](NC(=O)[C@H](CCCCN)NC(=O)[C@H](CCC(N)=O)NC(=O)[C@H](CCCCN)NC(=O)[C@H](CC(C)C)NC(=O)[C@H](C)NC(=O)[C@H](CCC(=O)O)NC(=O)[C@H](CC(C)C)NC(=O)C(C)(C)NC(=O)[C@H](CCC(=O)O)NC(=O)[C@H](CC(N)=O)NC(=O)[C@H](CC(C)C)NC(=O)[C@H](CCCCN)NC(=O)[C@H](CCC(=O)O)NC(=O)[C@H](CCCNC(=N)N)NC(=O)[C@H](Cc1ccccc1)NC(=O)[C@H](CCC(=O)O)NC(=O)[C@H](CC(=O)O)NC(=O)[C@H](CC(C)C)NC(=O)[C@@H](NC(=O)[C@@H]1CCCN1)C(C)C)C(=O)O [compound 58, PVLDEFREKLNEXLEALKQKL~] (H-PVLDEFREKLNE[Aib]LEALKQKL-OH)
8 | 16 | CC(C)C[C@H](NC(=O)[C@H](C)NC(=O)[C@H](CCC(=O)O)NC(=O)[C@H](CC(C)C)NC(=O)C(C)(C)NC(=O)[C@H](CCC(=O)O)NC(=O)[C@H](CC(N)=O)NC(=O)[C@H](CC(C)C)NC(=O)[C@H](CCCCN)NC(=O)[C@H](CCC(=O)O)NC(=O)[C@H](CCCNC(=N)N)NC(=O)[C@H](Cc1ccccc1)NC(=O)[C@H](Cc1ccccc1)NC(=O)[C@H](CC(=O)O)NC(=O)[C@H](CC(C)C)NC(=O)[C@@H](NC(=O)[C@@H]1CCCN1)C(C)C)C(=O)N[C@@H](CCCCN)C(=O)N[C@@H](CCC(N)=O)C(=O)N[C@@H](CCCCN)C(=O)N[C@@H](CC(C)C)C(=O)N[C@@H](CCCCN)C(=O)O [compound 63, PVLDFFREKLNEXLEALKQKLK] (H-PVLDFFREKLNE[Aib]LEALKQKLK-OH)
9 | 14 | CC(C)C[C@H](NC(=O)[C@H](C)NC(=O)[C@H](CCC(=O)O)NC(=O)[C@H](CC(C)C)NC(=O)C(C)(C)NC(=O)[C@H](CCC(=O)O)NC(=O)[C@H](CCCCN)NC(=O)[C@H](CC(C)C)NC(=O)[C@H](CC(C)C)NC(=O)[C@H](CCC(=O)O)NC(=O)[C@H](CCCNC(=N)N)NC(=O)[C@H](Cc1ccccc1)NC(=O)[C@H](CCC(=O)O)NC(=O)[C@H](CC(=O)O)NC(=O)[C@H](CC(C)C)NC(=O)[C@@H](NC(=O)[C@@H]1CCCN1)C(C)C)C(=O)N[C@@H](CCCCN)C(=O)N[C@@H](CCC(N)=O)C(=O)N[C@@H](CCCCN)C(=O)N[C@@H](CC(C)C)C(=O)N[C@@H](CCCCN)C(=O)O [compound 68, PVLDEFRELLKEXLEALKQKLK] (H-PVLDEFRELLKE[Aib]LEALKQKLK-OH)
10 | 13 | CC(C)C[C@H](NC(=O)[C@H](C)NC(=O)[C@H](CCC(=O)O)NC(=O)[C@H](CC(C)C)NC(=O)C(C)(C)NC(=O)[C@H](CCC(=O)O)NC(=O)[C@H](CC(N)=O)NC(=O)[C@H](CC(C)C)NC(=O)[C@H](CCCCN)NC(=O)[C@H](CCCCN)NC(=O)[C@H](CCCNC(=N)N)NC(=O)[C@H](Cc1ccccc1)NC(=O)[C@H](CCC(=O)O)NC(=O)[C@H](CC(=O)O)NC(=O)[C@H](CC(C)C)NC(=O)[C@@H](NC(=O)[C@@H]1CCCN1)C(C)C)C(=O)N[C@@H](CCCCN)C(=O)N[C@@H](CCC(N)=O)C(=O)N[C@@H](CCCCN)C(=O)N[C@@H](CC(C)C)C(=O)N[C@@H](CCCCN)C(=O)O [compound 69, PVLDEFRKKLNEXLEALKQKLK] (H-PVLDEFRKKLNE[Aib]LEALKQKLK-OH)
